Among the data in patent US9884063B2, “Amido-substituted azole compounds” (Bayer Pharma Aktiengesellschaft, priority 2014, dated 2018) are IC50 values, retold here.

As a reminder, the IC50 is the midpoint of a concentration-inhibition curve. Low values mean greater potency, high ones weaker potency.

The structures appear in SMILES notation.

The assay concerns the target T1, TNKS2 (Homo sapiens, UniProt Q9H2K2).
T1 sequence (Q9H2K2 1-1166): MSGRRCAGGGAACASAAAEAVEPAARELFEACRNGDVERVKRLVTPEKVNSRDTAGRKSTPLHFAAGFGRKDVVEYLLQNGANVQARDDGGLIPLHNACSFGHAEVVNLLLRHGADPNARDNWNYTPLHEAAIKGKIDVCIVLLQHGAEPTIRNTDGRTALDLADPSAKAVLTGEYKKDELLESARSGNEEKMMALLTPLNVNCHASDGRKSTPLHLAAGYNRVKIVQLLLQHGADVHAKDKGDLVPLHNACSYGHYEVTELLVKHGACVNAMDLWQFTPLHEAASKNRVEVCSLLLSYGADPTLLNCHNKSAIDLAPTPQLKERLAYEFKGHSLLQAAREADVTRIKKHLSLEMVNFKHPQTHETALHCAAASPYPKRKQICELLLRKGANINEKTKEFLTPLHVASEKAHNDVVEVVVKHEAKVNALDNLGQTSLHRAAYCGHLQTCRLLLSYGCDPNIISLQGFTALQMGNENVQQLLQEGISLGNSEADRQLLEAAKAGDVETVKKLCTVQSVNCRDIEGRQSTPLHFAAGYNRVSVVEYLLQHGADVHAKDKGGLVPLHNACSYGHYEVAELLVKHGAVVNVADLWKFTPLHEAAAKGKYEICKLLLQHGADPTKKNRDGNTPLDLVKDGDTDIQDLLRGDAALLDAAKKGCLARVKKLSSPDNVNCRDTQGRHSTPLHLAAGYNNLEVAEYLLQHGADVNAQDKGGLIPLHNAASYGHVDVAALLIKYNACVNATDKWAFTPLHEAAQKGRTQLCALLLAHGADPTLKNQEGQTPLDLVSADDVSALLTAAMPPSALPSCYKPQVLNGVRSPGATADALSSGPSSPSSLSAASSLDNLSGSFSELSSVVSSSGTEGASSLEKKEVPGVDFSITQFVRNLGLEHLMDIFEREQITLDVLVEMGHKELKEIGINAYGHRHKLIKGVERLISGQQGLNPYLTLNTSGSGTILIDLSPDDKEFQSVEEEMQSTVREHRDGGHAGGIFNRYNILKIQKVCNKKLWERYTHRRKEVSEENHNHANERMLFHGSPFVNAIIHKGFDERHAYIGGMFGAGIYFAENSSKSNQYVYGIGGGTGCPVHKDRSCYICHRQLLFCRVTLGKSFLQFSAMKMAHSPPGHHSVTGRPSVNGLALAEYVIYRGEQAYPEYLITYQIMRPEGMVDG
Description: Modified TNKS2 Assay 2 (auto-parsylation, [3H]-NAD+ SPA). Particulars: 6 nM TNKS2, 96 well. The format is biochemical.
Regarding `COC(=O)c1nc[nH]c1C(=O)Nc1ccc(NC(=O)c2ccccc2Cl)c(C)c1` [Example 86, methyl-5-({4-[(2-chlorobenzoyl)amino]-3-methylphenyl}carbamoyl)-1H-imidazole-4-carboxylate], 3400 nM corresponded to half-maximal inhibition (IC50).

Turning to `Cc1cc(NC(=O)c2[nH]cnc2C(=O)NCCN2CCCCC2)ccc1NC(=O)c1ccccc1Cl` [Example 89, N^5-{4-[(2-chlorobenzoyl)amino]-3-methylphenyl}-N^4-[2-(piperidin-1-yl)ethyl]-1H-imidazole-4,5-dicarboxamide], the IC50 came to 50 nM.

In the case of `COC(=O)c1nc[nH]c1C(=O)Nc1ccc(NC(=O)c2ccc(F)cc2Cl)c(OC)c1` [Example 94, methyl 5-({4-[(2-chloro-4-fluorobenzoyl)amino]-3-methoxyphenyl}carbamoyl)-1H-imidazole-4-carboxylate], 500 nM corresponded to half-maximal inhibition (IC50).

Molecule `CNC(=O)c1nc[nH]c1C(=O)Nc1ccc(NC(=O)c2ccc(F)cc2Cl)c(OC)c1` [Example 95, N^5-{4-[(2-chloro-4-fluorobenzoyl)amino]-3-methoxyphenyl}-N^4-methyl-1H-imidazole-4,5-dicarboxamide] had an IC50 of 470 nM.

The molecule `COc1cc(NC(=O)c2[nH]cnc2C(=O)NCCN(C)C)ccc1NC(=O)c1ccc(F)cc1Cl` [Example 96, N^5-{4-[(2-chloro-4-fluorobenzoyl)amino]-3-methoxyphenyl}-N^4-[2-(dimethylamino)ethyl]-1H-imidazole-4,5-dicarboxamide] displayed an IC50 of 40 nM.

Regarding `COc1cc(NC(=O)c2[nH]cnc2C(=O)NCCN2CCCCC2)ccc1NC(=O)c1ccc(F)cc1Cl` [Example 97, N^5-{4-[(2-chloro-4-fluorobenzoyl)amino]-3-methoxyphenyl}-N^4-[2-(piperidin-1-yl)ethyl]-1H-imidazole-4,5-dicarboxamide], the IC50 was 5 nM.

The molecule `COC(=O)c1nc[nH]c1C(=O)Nc1ccc(NC(=O)c2ccccc2Cl)c(OC)c1` [Example 98, methyl 5-({4-[(2-chlorobenzoyl)amino]-3-methoxyphenyl}carbamoyl)-1H-imidazole-4-carboxylate] yielded an IC50 of 370 nM.

As for `COc1cc(NC(=O)c2[nH]cnc2C(=O)NCCN(C)C)ccc1NC(=O)c1ccccc1Cl` [Example 100, N^5-{4-[(2-chlorobenzoyl)amino]-3-methoxyphenyl}-N^4-[2-(dimethylamino)ethyl]-1H-imidazole-4,5-dicarboxamide], the half-inhibitory concentration (IC50) stood at 160 nM.

Regarding `COC(=O)c1nc[nH]c1C(=O)Nc1ccc(NC(=O)c2ccc(F)cc2)c(OC)c1` [Example 102, methyl 5-({4-[(4-fluorobenzoyl)amino]-3-methoxyphenyl}carbamoyl)-1H-imidazole-4-carboxylate], the IC50 is > 10000 nM.

As for `CNC(=O)c1[nH]c(C(C)C)nc1C(=O)Nc1ccc(NC(=O)c2ccc(F)cc2Cl)cc1` [Example 106, N^4-{4-[(2-chloro-4-fluorobenzoyl)amino]phenyl}-2-isopropyl-N^5-methyl-1H-imidazole-4,5-dicarboxamide], the concentration for half-maximal inhibition (IC50) is > 10000 nM.

Regarding `CNC(=O)c1nc[nH]c1C(=O)Nc1ccc(NC(=O)c2ccccc2Cl)nc1` [Example 112, N^5-{6-[(2-chlorobenzoyl)amino]pyridin-3-yl}-N^4-methyl-1H-imidazole-4,5-dicarboxamide], half-maximal inhibition (IC50) was put at 370 nM.

Consider `CN(C)CCNC(=O)c1nc[nH]c1C(=O)Nc1ccc(NC(=O)c2ccccc2Cl)nc1` [Example 113, N^5-{6-[(2-chlorobenzoyl)amino]pyridin-3-yl}-N^4-[2-(dimethylamino)ethyl]-1H-imidazole-4,5-dicarboxamide], for which it took 40 nM to reach half-maximal inhibition (IC50).
